The source of these data is patent publication US9890126B2 (priority 2012, dated 2018).

Like-named read-outs stand apart in the source and are kept apart here. Marks after values point to notes of the source that are not given here.

One experiment deals with IspF (Burkholderia pseudomallei, UniProt Q3JRA0). Description: biochemical. Type of experiment: binding.
Experiment [1] has as its system Burkholderia.
Another experiment has as its system B. pseudomallei. In kind it is cell-based, Burkholderia pseudomallei. The note with it: for concentration effects on growth of B. pseudomallei over time: 1 mM to 31.25 μM, FIGS. 3-10, strains 1026b and 340.
The subject of a further experiment is Plasmodium falciparum. Description: Antimalarial initial tests, three strains of drug resistant malaria. The settings on record: all three strains of drug resistant malaria.
Experiment [2] relates to Burkholderia. Description: microbe, parasite or virus in culture. The settings on record: read-out: inhibition against Burkholderia.
[3] abbreviates: relative to DMSO control, 0.00 = growth with inhibitor equal to or greater than DMSO control.

Sequence of IspF (Q3JRA0 whole entry, looked up): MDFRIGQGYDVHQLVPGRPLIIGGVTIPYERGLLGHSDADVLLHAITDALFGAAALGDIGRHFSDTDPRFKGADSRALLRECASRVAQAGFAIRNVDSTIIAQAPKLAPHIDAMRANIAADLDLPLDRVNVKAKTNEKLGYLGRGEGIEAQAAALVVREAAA

What is called Kd is the concentration at which binding is half-saturated. Low readings indicate tighter binding, high ones weaker binding. With `Oc1ccc(-c2cncn2CCc2c[nH]c3ccccc23)cc1` [HGN-0020], binding at IspF was put at a Kd of 204 µM. For the same compound, the “% Growth Inhibition Growth Curve” value in the experiment with Burkholderia [1] (setting [3]) came out at 1.26 ± 2.33%.

Compound `O=C([O-])c1cnc(NCCc2ccc(Cl)cc2)nc1[O-].[Na+].[Na+]` [HGN-0028] gave a dissociation constant (Kd) at IspF of 305 µM. For the same compound, the “concentration effects on growth of B. pseudomallei over time” value in the experiment on B. pseudomallei was “dose dependent”. Besides, the “growth of B. pseudomallei over time” value in the experiment on B. pseudomallei (FIG. 2) is recorded as “inhibited the growth”. In the experiment with B. pseudomallei (lower concentrations), the “B. pseudomallei growth inhibition at lower concentrations” value is on record as “did not inhibit”. Further, in the experiment on Burkholderia [1] (setting [3]), the “% Growth Inhibition Growth Curve” value came out at 68.20 ± 2.12%.

Regarding `Oc1ccc(-n2ccnc2)cc1` [HGN-0029], in the experiment on B. pseudomallei, the “concentration effects on growth of B. pseudomallei over time” value is recorded as “did not inhibit the growth”. Besides, in the experiment on Burkholderia [1] (setting [3]), the “% Growth Inhibition Growth Curve” value was 23.58 ± 0.54%.

With `O=C(O)c1cnc(Nc2ccc(-c3ccccc3)cc2)[nH]c1=O` [HGN-0035, 2-((1,1′-biphenyl)-4-ylamino)-6-oxo-1,6-dihydropyrimidine-5-carboxylic acid], at IspF (pH 7.4), the equilibrium dissociation constant (Kd) result is given as “not soluble”. Also, the “% Growth Inhibition Endpoint (24 h)” value in the experiment on Burkholderia [1] (setting [3]) is given as 91.14 ± 1.18%.

As for `CCOC(=O)c1cnc(Nc2ccc(N3CCOCC3)cc2)[nH]c1=O` [HGN-0037], the dissociation constant (Kd) result on IspF (pH 7.4) is “not soluble”. Also, the “% Growth Inhibition Endpoint (24 h)” value with Burkholderia [1] (cells printing symbol L) was “L^c”.

Regarding `CCOC(=O)c1cnc(NCCc2ccc(Cl)cc2)[nH]c1=O` [HGN-0038, Ethyl 2-((4-chlorophenethyl)amino)-6-oxo-1,6-dihydropyrimidine-5-carboxylate], on IspF (pH 7.4), the dissociation constant Kd entry was “not soluble”. In addition, the “% Growth Inhibition Endpoint (24 h)” value with Burkholderia [1] (setting [3]) is reported as 0.00^b %.

As to `CCOC(=O)c1cnc(Nc2cccc(-c3ccccc3)c2)[nH]c1=O` [HGN-0039], at IspF (pH 7.4), the equilibrium dissociation constant (Kd) result is recorded as “non specific”. The “% Growth Inhibition Endpoint (24 h)” value in the experiment on Burkholderia [1] (setting [3]) is listed as 0.00^b %.

Consider `CCOC(=O)c1cnc(Nc2ccc3cn[nH]c3c2)[nH]c1=O` [HGN-0040, Ethyl 2-((1H-indazol-6-yl)amino)-6-oxo-1,6-dihydropyrimidine-5-carboxylate], for which the equilibrium dissociation constant (Kd) result on IspF (pH 7.4) is reported as “no binding”. Also, the “% Growth Inhibition Endpoint (24 h)” value with Burkholderia [1] (setting [3]) is on record as 16.39 ± 6.29%.

`CCOC(=O)c1cnc(Nc2ccc(CC(=O)O)cc2)[nH]c1=O` [HGN-0041, 2-(4-((5-(ethoxycaronyl)-6-oxo-1,6-dihydropyrimidin-2-yl)amino)phenyl)acetic acid]: the Kd entry on IspF (pH 7.4) is “not soluble”. Besides, the “% Growth Inhibition Endpoint (24 h)” value with Burkholderia [1] (setting [3]) is 0.00^b %.

On to `CCOC(=O)c1cnc(Nc2ccc3[nH]ncc3c2)[nH]c1=O` [HGN-0042, Ethyl 2-((1H-indazol-5-yl)amino)-6-oxo-1,6-dihydropyrimidine-5-carboxylate], for which the equilibrium dissociation constant (Kd) result on IspF (pH 7.4) is “not soluble”. For the same compound, the “% Growth Inhibition Endpoint (24 h)” value in the experiment with Burkholderia [1] (setting [3]) is 20.70 ± 0.71%.

Consider `O=C([O-])c1cnc(Nc2ccc3cn[nH]c3c2)nc1[O-].[Na+].[Na+]` [HGN-0045, Sodium 2-((1H-indazol-6-yl)amino)-4-oxoidopyrimidine-5-carboxylate], for which the Kd entry at IspF (pH 7.4) is “non specific”. For the same compound, the “% Growth Inhibition Endpoint (24 h)” value with Burkholderia [1] (setting [3]) was 0.00^b %.

Take `O=C([O-])c1cnc(Nc2ccc3[nH]ncc3c2)nc1[O-].[Na+].[Na+]` [HGN-0046, Sodium 2-((1H-indazol-5-yl)amino)-4-oxoidopyrimidine-5-carboxylate]: the equilibrium dissociation constant (Kd) result on IspF (pH 7.4) is recorded as “non specific”. For the same compound, the “% Growth Inhibition Endpoint (24 h)” value in the experiment on Burkholderia [1] (setting [3]) stood at 15.12 ± 4.25%.

Consider `O=C([O-])c1cnc(NCc2ccco2)nc1[O-].[Na+].[Na+]` [HGN-0049], for which the “% Growth Inhibition Endpoint (24 h)” value in the experiment with Burkholderia [1] (setting [3]) is 12.25 ± 0.40%. Also, the “antimalarial potency in initial tests” value with Plasmodium falciparum is listed as “submicromolar”.

With `Oc1ccc(-c2cncn2CCc2ccc(Cl)cc2)cc1` [HGN-0051], the “% Growth Inhibition Endpoint (24 h)” value in the experiment with Burkholderia [1] (setting [3]) is recorded as 0.00^b %. In addition, the “antimalarial potency in initial tests” value in the experiment with Plasmodium falciparum is reported as “potent”.

In general, inhibition refers to how much of the control response was suppressed. In the case of `O=C(O)c1cnc(NCCc2ccc(Cl)cc2Cl)nc1O` [HGN-0118], the inhibition at 1000 µM in the experiment with Burkholderia [2] is 94.5%.
